# Assay results from the supplement of paper PMC8967900.
# Tests used:
# Assay in all cases: selective drug sensitivity score (sDSS, relative to normal bone marrow) (sDSS (score)); higher = more potent and effective on the cell line relative to normal bone marrow cells
# Conditions in all cases: 72 h
# PEER = tested on: PEER
# REH = tested on: REH
# TANOUE = tested on: TANOUE
# MOLT-16 = tested on: MOLT-16
# CCRF-HSB2 = tested on: CCRF-HSB2
# ALL-PO = tested on: ALL-PO
# MOLT-14 = tested on: MOLT-14
# COG-LL-319h = tested on: COG-LL-319h
# P30-OHKUBO = tested on: P30-OHKUBO
# COG-LL-355h = tested on: COG-LL-355h
# DND-41 = tested on: DND-41
# MHH-CALL-2 = tested on: MHH-CALL-2
# MN-60 = tested on: MN-60
# RPMI-8402 = tested on: RPMI-8402
# COG-LL-332h = tested on: COG-LL-332h
# P12-ICHIKAWA = tested on: P12-ICHIKAWA
# HAL-01 = tested on: HAL-01
# RCH-ACV = tested on: RCH-ACV
# SEM cells = tested on: SEM cells
# KARPAS-45 = tested on: KARPAS-45
# 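Also: ALL cell lines in 384-well plates, five doses spanning 10,000-fold, each plate scaled between vehicle and 100 µmol/L benzalkonium chloride controls, sDSS an adapted area-under-curve metric.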
SMILES,selective drug sensitivity score (PEER),selective drug sensitivity score (REH),selective drug sensitivity score (TANOUE),selective drug sensitivity score (MOLT-16),selective drug sensitivity score (CCRF-HSB2),selective drug sensitivity score (ALL-PO),selective drug sensitivity score (MOLT-14),selective drug sensitivity score (COG-LL-319h),selective drug sensitivity score (P30-OHKUBO),selective drug sensitivity score (COG-LL-355h),selective drug sensitivity score (DND-41),selective drug sensitivity score (MHH-CALL-2),selective drug sensitivity score (MN-60),selective drug sensitivity score (RPMI-8402),selective drug sensitivity score (COG-LL-332h),selective drug sensitivity score (P12-ICHIKAWA),selective drug sensitivity score (HAL-01),selective drug sensitivity score (RCH-ACV),selective drug sensitivity score (SEM cells),selective drug sensitivity score (KARPAS-45)
Oc1ccc2c(c1)CC[C@H](c1ccccc1)[C@@H]2c1ccc(OCCN2CCCC2)cc1 [Lasofoxifene] (top concentration 1000 nM),-1.28,-1.28,-1.08,1.12,-1.28,-1.28,-1.28,2.62,-1.28,-1.28,-1.28,-1.28,-1.28,-1.28,-1.28,-1.28,-0.08,-1.28,-1.28,-1.28
CCn1cc(-c2ccnc3[nH]c(-c4cccc(CN(C)C)c4)cc23)c(-c2ccc(NC(=O)N(C)C)cc2)n1 (top concentration 1000 nM),20.4,19.3,-1.84,14.9,15.5,13.2,15.9,22.9,26.6,8.36,-0.84,6.66,-1.84,8.86,19.3,15.4,1.46,14,17.9,24.1
CC(C)n1cnc2c(NCCc3ccc(O)cc3)nc(-c3csc4ccccc34)nc21 [StemRegenin_1] (top concentration 10000 nM),1.5,1.8,4.2,4.4,1.9,1.9,-0.2,-1.8,2.2,-0.1,4.5,2.5,2.7,-0.7,0.8,0.2,2.4,-0.6,-0.5,3.9
CC[C@]12C=CCN3CC[C@@]4(c5cc([C@@]6(C(=O)OC)C[C@@H]7C[C@@H](C(C)(F)F)CN(Cc8c6[nH]c6ccccc86)C7)c(OC)cc5N(C)[C@H]4[C@@](O)(C(=O)OC)[C@@H]1OC(C)=O)[C@@H]32 [Vinflunine] (top concentration 1000 nM),5.08,4.18,-1.32,3.98,4.48,1.68,3.78,2.98,3.68,2.68,0.18,2.88,0.58,4.78,3.78,3.98,1.38,3.98,6.28,4.48
CC(C)Cn1cnc2c(N)nc3ccccc3c21 [Imiquimod] (top concentration 2500 nM),0,5.1,0.1,0.5,0.4,0.4,0,0,0,0.6,0,1.7,0,0,0,0,2.6,1.7,0,0
CC(C)(C)C[C@@H]1N[C@@H](C(=O)N[C@H]2CC[C@H](O)CC2)[C@H](c2cccc(Cl)c2F)[C@]12C(=O)Nc1cc(Cl)ccc12 (top concentration 10000 nM),-2.04,3.56,-7.84,12.5,9.06,-1.84,9.56,13.9,12.4,8.46,-3.84,13.2,-0.74,-3.34,8.66,-5.24,12.2,12.4,-1.94,-2.64
COc1cc2/c(=N/c3ccc(Br)cc3F)nc[nH]c2cc1OCC1CCN(C)CC1 [Vandetanib] (top concentration 1000 nM),1.38,-0.22,-0.22,-0.22,11.6,-0.22,0.48,-0.22,0.38,-0.22,-0.22,4.38,-0.22,-0.22,0.28,-0.22,1.68,-0.22,-0.12,0.68
CCOCc1nc2c(N)nc3ccccc3c2n1CC(C)(C)O [Resiquimod] (top concentration 10000 nM),-4.92,-4.92,-3.02,-3.22,-4.92,-4.92,-4.92,5.68,-2.82,-4.92,-4.92,-4.92,-1.82,-4.92,-4.72,-4.92,-4.62,-4.92,-4.92,-4.92
O=C(Nc1cccnc1)N1CCC(Cc2cccc(Oc3ccc(C(F)(F)F)cn3)c2)CC1 [PF-3845] (top concentration 10000 nM),7.06,2.96,3.66,2.66,3.26,2.36,2.26,-0.04,0.46,-0.54,-0.24,-0.24,3.06,4.66,2.16,3.26,-0.84,5.66,0.96,3.96
COc1cc(N2CCC(N3CCN(C)CC3)CC2)ccc1Nc1ncnc(Nc2ccccc2S(=O)(=O)C(C)C)n1 [ASP3026] (top concentration 10000 nM),-0.24,3.26,-2.64,-1.54,5.06,5.36,1.36,-4.04,-1.04,1.36,0.56,-0.84,0.66,0.56,-0.04,-1.44,1.76,-0.74,1.66,0.56
COC(=O)c1ccc([C@H]2c3[nH]c4ccccc4c3C[C@H](C(=O)OC)N2C(=O)CCl)cc1 [RSL3] (top concentration 10000 nM),0,3.1,0,0,0,0,0,0,2.7,3.8,0,0.1,0,1.2,0,0,3.5,4.5,0,0
CC[C@H](C)C(=O)O[C@H]1C[C@H](O)C=C2C=C[C@H](C)[C@H](CC[C@@H](O)C[C@@H](O)CC(=O)O)[C@H]21 [Pravastatin] (top concentration 10000 nM),-0.66,-0.66,-0.66,-0.66,-0.66,-0.66,-0.16,0.64,-0.66,-0.56,-0.66,-0.36,-0.66,-0.66,-0.66,-0.66,0.64,-0.56,-0.66,-0.66
C=CCN(/C=C1/C(=O)O[C@H](COC)[C@@]2(C)C1=C(O)C(=O)C1=C2[C@H](OC(C)=O)C[C@]2(C)C(=O)CC[C@@H]12)CC=C [Sonolisib] (top concentration 10000 nM),-0.76,-0.76,-0.76,-0.76,-0.76,2.44,-0.76,4.24,-0.16,0.94,1.64,0.34,-0.76,-0.76,-0.66,-0.76,1.94,2.14,-0.76,-0.76
CCC(C)(C)C(=O)O[C@H]1C[C@@H](C)C=C2C=C[C@H](C)[C@H](CC[C@@H]3C[C@@H](O)CC(=O)O3)[C@H]21 [Simvastatin] (top concentration 10000 nM),1.48,0.88,-0.72,2.18,0.08,-0.72,-0.22,0.68,1.28,3.48,-0.72,9.58,-0.72,2.08,0.68,2.18,3.08,2.18,1.58,2.58
CN(C)C[C@@H]1CCn2cc(c3ccccc32)C2=C(C(=O)NC2=O)c2cn(c3ccccc23)CCO1 [Ruboxistaurin] (top concentration 10000 nM),0.46,-0.54,-8.24,-0.34,1.36,6.86,1.66,-1.04,0.46,1.26,-0.44,3.66,-5.44,-1.74,1.16,-1.74,1.16,1.06,0.66,-0.14
CC#CC(=O)N1CCC[C@H]1c1nc(-c2ccc(C(=O)Nc3ccccn3)cc2)c2c(N)nccn12 [Acalabrutinib] (top concentration 1000 nM),-0.1,-0.1,-0.1,-0.1,-0.1,-0.1,-0.1,0,1.3,-0.1,-0.1,9,-0.1,-0.1,-0.1,-0.1,7.2,1.8,3.2,0.7
C[C@H]1CNCCCN1S(=O)(=O)c1cccc2cncc(F)c12 [Ripasudil] (top concentration 10000 nM),1.88,-0.22,-0.22,-0.22,1.58,-0.22,-0.22,1.18,-0.22,-0.22,-0.22,-0.02,-0.22,0.98,1.78,1.18,-0.22,-0.22,-0.22,0.88
CC1(C)CNc2cc(NC(=O)c3cccnc3NCc3ccncc3)ccc21 [Motesanib] (top concentration 10000 nM),0.38,-0.22,1.58,-0.22,1.08,-0.22,-0.22,0.08,-0.22,-0.22,-0.22,-0.22,-0.22,-0.22,-0.22,-0.22,-0.22,-0.22,-0.22,-0.22
